Data published in patent publication US4677100A, “Cephalosporin derivatives” (Banyu Pharmaceutical Co., Ltd., priority 1984, dated 1987).
Values after ≈ are worked out from the molar mass of the structure shown.

Columns and labels:
[1] = tested on: A. calcoaceticus No. 14; experiment: MIC, agar plate dilution method; format: cell-based; settings: Acinetobacter calcoaceticus; for MIC: A. calcoaceticus No. 14, 10^6 CFU/ml, Sensitivity Disk Agar, read-out: Minimum Inhibitory Concentration
Procedure: (§1) The minimum inhibitory concentrations (MIC: μg/ml) of the compounds of the present invention against various microorganisms were measured by an agar plate dilution method (inoculum size: 10^6 CFU/ml) by using Sensitivity Disk Agar (Nissui) in comparison with Cefotaxime and Ceftazidime as comparative compounds.

[2] = tested on: C. freundii No. 7; experiment: MIC, agar plate dilution method; format: cell-based; settings: Citrobacter freundii; C. freundii No. 7; 10^6 CFU/ml; Sensitivity Disk Agar; read-out: Minimum Inhibitory Concentration
Procedure: as §1

[3] = tested on: E. cloaceae Nek 39; experiment: MIC, agar plate dilution method; format: cell-based; settings: E. cloaceae Nek 39; 10^6 CFU/ml; Sensitivity Disk Agar; read-out: Minimum Inhibitory Concentration
Procedure: as §1

[4] = tested on: E. coli C/Rms149; experiment: MIC, agar plate dilution method; format: cell-based; settings: Escherichia coli, read-out: Minimum Inhibitory Concentration
Procedure: as §1

[5] = tested on: E. coli CSH2; experiment: MIC, agar plate dilution method; format: cell-based; settings: Escherichia coli, 10^6 CFU/ml, Sensitivity Disk Agar, read-out: Minimum Inhibitory Concentration
Procedure: as §1

[6] = tested on: E. coli CSH; experiment: MIC, agar plate dilution method; format: cell-based; settings: Escherichia coli, read-out: Minimum Inhibitory Concentration
Procedure: as §1

[7] = tested on: E. coli ML1410/Rte16; experiment: MIC, agar plate dilution method; format: cell-based; settings: Escherichia coli, ML1410/RTE16, read-out: Minimum Inhibitory Concentration
Procedure: as §1

[8] = tested on: E. coli NIHJJC-2; experiment: MIC, agar plate dilution method; format: cell-based; settings: Escherichia coli, NIHJJC2; E. coli NIHJJC-2; 10^6 CFU/ml; Sensitivity Disk Agar; read-out: Minimum Inhibitory Concentration
Procedure: as §1

[9] = tested on: E. coli W3630/Rms212; experiment: MIC, agar plate dilution method; format: cell-based; settings: Escherichia coli, W3630/RMS212, read-out: Minimum Inhibitory Concentration
Procedure: as §1

[10] = tested on: E. coli W3630/Rms213; experiment: MIC, agar plate dilution method; format: cell-based; settings: Escherichia coli, W3630/RMS213, read-out: Minimum Inhibitory Concentration
Procedure: as §1

[11] = tested on: K. pneumoniae No. 42; experiment: MIC, agar plate dilution method; format: cell-based; settings: Klebsiella pneumoniae; K. pneumoniae No. 42; 10^6 CFU/ml; Sensitivity Disk Agar; read-out: Minimum Inhibitory Concentration
Procedure: as §1

[12] = tested on: P. mirabilis JY10; experiment: MIC, agar plate dilution method; format: cell-based; settings: Proteus mirabilis; P. mirabilis JY10; 10^6 CFU/ml; Sensitivity Disk Agar; read-out: Minimum Inhibitory Concentration
Procedure: as §1

[13] = tested on: P. vulgaris No. 33; experiment: MIC, agar plate dilution method; format: cell-based; settings: Proteus vulgaris; P. vulgaris No. 33; 10^6 CFU/ml; Sensitivity Disk Agar; read-out: Minimum Inhibitory Concentration
Procedure: as §1

[14] = tested on: P. vulgaris OB1043; experiment: MIC, agar plate dilution method; format: cell-based; settings: Proteus vulgaris; P. vulgaris OB1043; 10^6 CFU/ml; Sensitivity Disk Agar; read-out: Minimum Inhibitory Concentration
Procedure: as §1

[15] = tested on: S. aureus JS-1; experiment: MIC, agar plate dilution method; format: cell-based; settings: Staphylococcus aureus, JS1; S. aureus JS-1; 10^6 CFU/ml; Sensitivity Disk Agar; read-out: Minimum Inhibitory Concentration
Procedure: as §1

[16] = tested on: S. aureus NIHJJC-1; experiment: MIC, agar plate dilution method; format: cell-based; settings: Staphylococcus aureus, NIHJJC1; S. aureus NIHJJC-1; 10^6 CFU/ml; Sensitivity Disk Agar; read-out: Minimum Inhibitory Concentration
Procedure: as §1

[17] = tested on: S. marcescens No. 16-2; experiment: MIC, agar plate dilution method; format: cell-based; settings: Serratia marcescens, NO.162; S. marcescens No. 16-2; 10^6 CFU/ml; Sensitivity Disk Agar; read-out: Minimum Inhibitory Concentration
Procedure: as §1

[18] = tested on: P. aeruginosa AK109; experiment: MIC, agar plate dilution method; format: cell-based, Pseudomonas aeruginosa; settings: for MIC: Pseudomonas aeruginosa, P. aeruginosa AK109, 10^6 CFU/ml, Sensitivity Disk Agar, read-out: Minimum Inhibitory Concentration; for antibacterial activity relative to the compound of Reference Example: Pseudomonas aeruginosa AK109
Procedure: as §1

[19] = tested on: P. aeruginosa AKR17; experiment: MIC, agar plate dilution method; format: cell-based, Pseudomonas aeruginosa; settings: for MIC: Pseudomonas aeruginosa, P. aeruginosa AKR17, 10^6 CFU/ml, Sensitivity Disk Agar, read-out: Minimum Inhibitory Concentration; for antibacterial activity relative to the compound of Reference Example: Pseudomonas aeruginosa AKR-17, resistant to all cephalosporins including Ceftazidime
Procedure: as §1

[20] = tested on: P. cepacia 23; experiment: MIC, agar plate dilution method; format: cell-based, Pseudomonas cepacia; settings: for MIC: Burkholderia cepacia, P. cepacia 23, 10^6 CFU/ml, Sensitivity Disk Agar, read-out: Minimum Inhibitory Concentration; for antibacterial activity relative to the compound of Reference Example: Pseudomonas cepacia 23
Procedure: as §1

[21] = tested on: P. maltophilia IID 1275; experiment: MIC, agar plate dilution method; format: cell-based, Pseudomonas maltophilia; settings: for MIC: Stenotrophomonas maltophilia, IID1275, P. maltophilia IID 1275, 10^6 CFU/ml, Sensitivity Disk Agar, read-out: Minimum Inhibitory Concentration
Procedure: as §1

[22] = tested on: Gram-positive bacteria and Gram-negative bacteria; experiment: antibacterial activity, general statement; format: cell-based; settings: sensitive and resistant bacteria
Procedure: as §1

| SMILES | MIC [1] [µg/mL] | MIC [2] [µg/mL] | MIC [3] [µg/mL] | MIC [4] [µg/mL] | MIC [5] [µg/mL] | MIC [6] [µg/mL] | MIC [7] [µg/mL] | MIC [8] [µg/mL] | MIC [9] [µg/mL] | MIC [10] [µg/mL] | MIC [11] [µg/mL] | MIC [12] [µg/mL] | MIC [13] [µg/mL] | MIC [14] [µg/mL] | MIC [15] [µg/mL] | MIC [16] [µg/mL] | MIC [17] [µg/mL] | MIC [18] [µg/mL] | MIC [19] [µg/mL] | MIC [20] [µg/mL] | other results |
| --- | --- | --- | --- | --- | --- | --- | --- | --- | --- | --- | --- | --- | --- | --- | --- | --- | --- | --- | --- | --- | --- |
| CO/N=C(\C(=O)NC1C(=O)N2C(C(=O)[O-])=C(C[N+]3(C)Cc4ccc(OC(C)=O)cc4C3)CSC12)c1csc(N)n1 (stereo not drawn) [Ex. 1-F] | 25 (≈ 42.6 µM) | 1.56 (≈ 2.66 µM) | 0.78 (≈ 1.33 µM) | 0.1 (≈ 0.17 µM) | ≤ 0.05 | 0.78 (≈ 1.33 µM) | 0.1 (≈ 0.17 µM) | ≤ 0.05 | 0.2 (≈ 0.341 µM) | 0.78 (≈ 1.33 µM) | 0.2 (≈ 0.341 µM) | 0.39 (≈ 0.665 µM) | 0.1 (≈ 0.17 µM) | 0.78 (≈ 1.33 µM) | 6.25 (≈ 10.7 µM) | 0.39 (≈ 0.665 µM) | 12.5 (≈ 21.3 µM) | 3.12 (≈ 5.32 µM) | > 25 | 6.25 (≈ 10.7 µM) | MIC [21]: > 25 µg/mL |
| CO/N=C(\C(=O)NC1C(=O)N2C(C(=O)[O-])=C(C[N+]3(C)Cc4ccc(O)cc4C3)CSC12)c1csc(N)n1 (stereo not drawn) [Ex. 2-D, 7-[(Z)-2-(2-aminothiazol-4-yl)-2-methoxyiminoacetamido]-3-(5-hydroxy-2-methyl-2-isoindolinium)methyl-3-cephem-4-carboxylate] | 25 (≈ 45.9 µM) | 1.56 (≈ 2.86 µM) | 0.78 (≈ 1.43 µM) | 0.1 (≈ 0.184 µM) | ≤ 0.05 | 0.39 (≈ 0.716 µM) | 0.1 (≈ 0.184 µM) | ≤ 0.05 | 0.2 (≈ 0.367 µM) | 0.78 (≈ 1.43 µM) | 0.2 (≈ 0.367 µM) | 0.39 (≈ 0.716 µM) | 0.1 (≈ 0.184 µM) | 0.39 (≈ 0.716 µM) | 6.25 (≈ 11.5 µM) | 0.39 (≈ 0.716 µM) | 6.25 (≈ 11.5 µM) | 3.12 (≈ 5.73 µM) | > 25 | 6.25 (≈ 11.5 µM) | MIC [21]: > 25 µg/mL |
| CO/N=C(\C(=O)NC1C(=O)N2C(C(=O)[O-])=C(C[N+]3(C)Cc4cc(OC(C)=O)c(OC(C)=O)cc4C3)CSC12)c1csc(N)n1 (stereo not drawn) [Ex. 3-D] | 0.2 (≈ 0.31 µM) | 6.25 (≈ 9.69 µM) | ≤ 0.05 | 0.1 (≈ 0.155 µM) | 0.2 (≈ 0.31 µM) | 1.56 (≈ 2.42 µM) | 0.1 (≈ 0.155 µM) | ≤ 0.05 | ≤ 0.05 | 0.78 (≈ 1.21 µM) | 0.2 (≈ 0.31 µM) | 0.39 (≈ 0.605 µM) | 0.2 (≈ 0.31 µM) | 3.12 (≈ 4.84 µM) | 25 (≈ 38.8 µM) | 6.25 (≈ 9.69 µM) | 6.25 (≈ 9.69 µM) | 0.2 (≈ 0.31 µM) | 0.78 (≈ 1.21 µM) | 0.39 (≈ 0.605 µM) | antibacterial activity relative to the compound of Reference Example [1]: at least 32 times; antibacterial activity relative to the compound of Reference Example [18]: at least 16 times; antibacterial activity relative to the compound of Reference Example [19]: at least 32 times; antibacterial activity relative to the compound of Reference Example [20]: at least 32 times; MIC [21]: 25 µg/mL (≈ 38.8 µM); antibacterial activity (in words) [22]: particularly strong antibacterial activities |
| CCON=C(C(=O)NC1C(=O)N2C(C(=O)[O-])=C(C[N+]3(C)Cc4cc(O)c(O)cc4C3)CSC12)c1csc(N)n1 (stereo not drawn) [Ex. 5-D, 7-[(Z)-2-(2-aminothiazol-4-yl)-2-ethoxyiminoacetamido]-3-(5,6-dihydroxy-2-methyl-2-isoindolinium) methyl-3-cephem-4-carboxylate] | 0.2 (≈ 0.348 µM) | 6.25 (≈ 10.9 µM) | ≤ 0.05 | 0.1 (≈ 0.174 µM) | 0.1 (≈ 0.174 µM) | 0.2 (≈ 0.348 µM) | 0.1 (≈ 0.174 µM) | ≤ 0.05 | ≤ 0.05 | 0.2 (≈ 0.348 µM) | 0.1 (≈ 0.174 µM) | 0.2 (≈ 0.348 µM) | 0.2 (≈ 0.348 µM) | 0.78 (≈ 1.36 µM) | 12.5 (≈ 21.8 µM) | 3.12 (≈ 5.43 µM) | 3.12 (≈ 5.43 µM) | 0.1 (≈ 0.174 µM) | 0.39 (≈ 0.679 µM) | 0.1 (≈ 0.174 µM) | antibacterial activity relative to the compound of Reference Example [1]: at least 32 times; antibacterial activity relative to the compound of Reference Example [18]: at least 16 times; antibacterial activity relative to the compound of Reference Example [19]: at least 32 times; antibacterial activity relative to the compound of Reference Example [20]: at least 32 times; MIC [21]: 25 µg/mL (≈ 43.5 µM); antibacterial activity (in words) [22]: particularly strong antibacterial activities |
| C[N+]1(CC2=C(C(=O)[O-])N3C(=O)C(NC(=O)C(=NOC4(C(=O)O)CCC4)c4csc(N)n4)C3SC2)Cc2cc(O)c(O)cc2C1 (stereo not drawn) [Ex. 11-F, 7-[(Z)-2-(2-aminothiazol-4-yl)-2-(1-carboxy-1-cyclobutoxyimino)acetamido]-3-(5,6-dihydroxy-2-methyl-2-isoindolinium)methyl-3-cephem-4-carboxylate] | 0.1 (≈ 0.155 µM) | 0.78 (≈ 1.21 µM) | ≤ 0.05 | ≤ 0.05 | ≤ 0.05 | ≤ 0.05 | ≤ 0.05 | ≤ 0.05 | ≤ 0.05 | ≤ 0.05 | ≤ 0.05 | ≤ 0.05 | ≤ 0.05 | ≤ 0.05 | > 25 | 25 (≈ 38.8 µM) | 0.2 (≈ 0.31 µM) | ≤ 0.05 | 0.1 (≈ 0.155 µM) | ≤ 0.05 | antibacterial activity relative to the compound of Reference Example [1]: at least 32 times; antibacterial activity relative to the compound of Reference Example [18]: at least 16 times; antibacterial activity relative to the compound of Reference Example [19]: at least 32 times; antibacterial activity relative to the compound of Reference Example [20]: at least 32 times; antibacterial activity relative to the compound of Reference Example ([21]; Pseudomonas maltophilia resistant to all cephalosporins): at least twice as strong; MIC [21]: 1.56 µg/mL (≈ 2.42 µM) |
| CO/N=C(\C(=O)NC1C(=O)N2C(C(=O)[O-])=C(C[N+]3(C)Cc4ccccc4C3)CSC12)c1csc(N)n1 (stereo not drawn) [Reference Ex., 7-[(Z)-2-(2-aminothiazol-4-yl)-2-methoxyiminoacetamido]-3-(2-methyl-2-isoindolinium)methyl-3-cephem-4-carboxylate, reference compound] | 25 (≈ 47.3 µM) | 1.56 (≈ 2.95 µM) | 0.78 (≈ 1.48 µM) | 0.1 (≈ 0.189 µM) | ≤ 0.05 | 0.39 (≈ 0.738 µM) | 0.05 (≈ 0.0946 µM) | ≤ 0.05 | 0.2 (≈ 0.378 µM) | 0.78 (≈ 1.48 µM) | 0.2 (≈ 0.378 µM) | 0.39 (≈ 0.738 µM) | 0.2 (≈ 0.378 µM) | 0.78 (≈ 1.48 µM) | 3.12 (≈ 5.9 µM) | 0.39 (≈ 0.738 µM) | 12.5 (≈ 23.6 µM) | 3.12 (≈ 5.9 µM) | > 25 | 12.5 (≈ 23.6 µM) | MIC [21]: > 25 µg/mL |
